Consider nine compounds from patent US4247632A (Kikkoman Shoyu Co., Ltd., priority 1978, dated 1981).

The test system of series [1] is methylguanidine-decomposing enzyme. The series is described as follows: Inhibition of the enzyme: residual activity after treatment with inhibitor. The conditions noted are these: for Residual activity of enzyme (%): activity without inhibitor = 100; for Inhibition of the enzyme (in words): conditions and concentrations of Table 1. Type of series: biochemical, Alcaligenes. How it is done:
A substrate solution having a methylguanidine sulfate concentration of 100 μg/ml is prepared by dissolving methylguanidine sulfate into 0.05 M sodium carbonate-sodium bicarbonate buffer solution (pH 11.0). […] If a precipitate is formed, the precipitate is removed by centrifugation or filtration. Thus, an enzymatic reaction fluid is obtained.
Then, each 50 μl of the enzymatic reaction fluid or the control is mixed with 1.5 ml of 0.1 mM solution of phenanthraquinone in dimethylformamide and 0.25 ml of 1 M aqueous solution of sodium hydroxide and subjected to reaction at room temperature for 40-50 minutes, and then 0.25 ml of concentrated hydrochloric acid and 2.5 ml of water are added. Then, the relative fluorescence intensities of the resulted reaction mixtures are measured with a fluorophotometer at an exciting wave length of 310 nm and a fluorescence wave length of 390 nm. The decrease in methylguanidine content is calculated from the difference in fluorescence intensities between each reaction mixture for the enzymatic reaction and the control.
In the expression of activity, a quantity of enzyme enough to decompose 1 μ-mole of methylguanidine per 1 minute at 30° C. is defined as one unit.

For series [2] the test system is unchanged. The series can be described thus: Action and substrate specificity of the enzyme. Type of series: biochemical, Alcaligenes. The source says: This enzyme decomposes methylguanidine to form methylamine and urea: [drawing 1]
This enzyme exerts no action upon guanidoacetic acid (glycocyamine) and guanididosuccinic acid.

The test system is the same in series [3]. The series can be described thus: Stabilization of the enzyme. Type of series: physicochemical, Alcaligenes. The note with it: 10% (V/W) of glycerin added. The source says: The enzyme is stabilized by adding 10% (V/W) of glycerin to it.
[4] abbreviates: 1 mM inhibitor, 30° C., pH 10, 60 minutes.
[5] abbreviates: 1 mM inhibitor, 30° C., pH 9, 1 hour.

Regarding `[Cl][Hg][Cl]` [HgCl2, mercurie chloride], in series [1] (setting [4]), the “Residual activity of enzyme (%)” value stood at 0%. The “Inhibition of the enzyme (in words)” value in series [1] is listed as “markedly inhibited”.

For the compound `OCCS` [2-Mercaptoethanol, 2-mercaptoethanol], the “Residual activity of enzyme (%)” value in series [1] (setting [5]) was found to be 0%. The “Inhibition of the enzyme (in words)” value in series [1] is “markedly inhibited”.

`O[C@H](CS)[C@H](O)CS` (racemic) [Dithiothreitol, dithiothreitol]: the “Residual activity of enzyme (%)” value in series [1] (setting [5]) came out at 0%. Also, the “Inhibition of the enzyme (in words)” value in series [1] is listed as “markedly inhibited”.

Consider `N=C(N)NC(CC(=O)O)C(=O)O` (centres unmarked) [guanididosuccinic acid], for which the “Action of the enzyme upon the substrate” value in series [2] is “no action”.

As to `II` [I2, iodine], the “Residual activity of enzyme (%)” value in series [1] (1 mM I2, 40° C., pH 7, 1 hour) is recorded as 0%. Further, the “Inhibition of the enzyme (in words)” value in series [1] is recorded as “markedly inhibited”.

For `CNC(=N)N` [methylguanidine], the “Action of the enzyme upon the substrate” value in series [2] is reported as “decomposes”.

In the case of `O=[N+]([O-])[O-].[Ag+]` [AgNO3, silver nitrate], the “Residual activity of enzyme (%)” value in series [1] (setting [4]) is 4%. Besides, the “Inhibition of the enzyme (in words)” value in series [1] is reported as “markedly inhibited”.

Consider `OCC(O)CO` [glycerin], for which, in series [3], the “Stabilization of the enzyme” value is reported as “stabilized”.

On to `N=C(N)NCC(=O)O` [guanidoacetic acid], for which the “Action of the enzyme upon the substrate” value in series [2] was “no action”.
